Measurements from the CheMixHub viscosity set.
± gives the uncertainty stated by the source.

Test: xn = mol fraction of the nth substance listed

O=C1CCCO1 + CC#N
Conditions	viscosity [mPa·s]
293.15 K, 101 kPa, x2 = 0.1054	1.604 ± 0.026
293.15 K, 101 kPa, x2 = 0.1934	1.392 ± 0.023
293.15 K, 101 kPa, x2 = 0.3007	1.172 ± 0.02
293.15 K, 101 kPa, x2 = 0.4029	0.998 ± 0.018
293.15 K, 101 kPa, x2 = 0.5036	0.849 ± 0.016
293.15 K, 101 kPa, x2 = 0.6012	0.732 ± 0.015
293.15 K, 101 kPa, x2 = 0.702	0.608 ± 0.013
293.15 K, 101 kPa, x2 = 0.8008	0.518 ± 0.013
293.15 K, 101 kPa, x2 = 0.8993	0.433 ± 0.012
298.15 K, 101 kPa, x2 = 0.1054	1.484 ± 0.024
298.15 K, 101 kPa, x2 = 0.1934	1.292 ± 0.022
298.15 K, 101 kPa, x2 = 0.3007	1.092 ± 0.019
298.15 K, 101 kPa, x2 = 0.4029	0.934 ± 0.017
298.15 K, 101 kPa, x2 = 0.5036	0.8 ± 0.015
298.15 K, 101 kPa, x2 = 0.6012	0.691 ± 0.014
298.15 K, 101 kPa, x2 = 0.702	0.576 ± 0.013
298.15 K, 101 kPa, x2 = 0.8008	0.495 ± 0.012
298.15 K, 101 kPa, x2 = 0.8993	0.414 ± 0.012
298.15 K, 101.33 kPa, x2 = 0.0503	1.591 ± 0.015
298.15 K, 101.33 kPa, x2 = 0.0938	1.471 ± 0.014
298.15 K, 101.33 kPa, x2 = 0.1387	1.375 ± 0.013
298.15 K, 101.33 kPa, x2 = 0.2001	1.253 ± 0.013
298.15 K, 101.33 kPa, x2 = 0.249	1.164 ± 0.012
298.15 K, 101.33 kPa, x2 = 0.3005	1.074 ± 0.011
298.15 K, 101.33 kPa, x2 = 0.3969	0.925 ± 0.011
298.15 K, 101.33 kPa, x2 = 0.4459	0.86 ± 0.01
298.15 K, 101.33 kPa, x2 = 0.4998	0.79 ± 0.01
298.15 K, 101.33 kPa, x2 = 0.5515	0.728 ± 0.009
298.15 K, 101.33 kPa, x2 = 0.5979	0.676 ± 0.009
298.15 K, 101.33 kPa, x2 = 0.7014	0.571 ± 0.008
298.15 K, 101.33 kPa, x2 = 0.7522	0.525 ± 0.008
298.15 K, 101.33 kPa, x2 = 0.8006	0.485 ± 0.008
298.15 K, 101.33 kPa, x2 = 0.8359	0.456 ± 0.008
298.15 K, 101.33 kPa, x2 = 0.8994	0.409 ± 0.007
298.15 K, 101.33 kPa, x2 = 0.9532	0.365 ± 0.007
303.15 K, 101 kPa, x2 = 0.1054	1.378 ± 0.023
303.15 K, 101 kPa, x2 = 0.1934	1.204 ± 0.02
303.15 K, 101 kPa, x2 = 0.3007	1.021 ± 0.018
303.15 K, 101 kPa, x2 = 0.4029	0.877 ± 0.016
303.15 K, 101 kPa, x2 = 0.5036	0.756 ± 0.015
303.15 K, 101 kPa, x2 = 0.6012	0.655 ± 0.014
303.15 K, 101 kPa, x2 = 0.702	0.547 ± 0.013
303.15 K, 101 kPa, x2 = 0.8008	0.473 ± 0.012
303.15 K, 101 kPa, x2 = 0.8993	0.395 ± 0.012
308.15 K, 101 kPa, x2 = 0.1054	1.284 ± 0.022
308.15 K, 101 kPa, x2 = 0.1934	1.126 ± 0.019
308.15 K, 101 kPa, x2 = 0.3007	0.958 ± 0.017
308.15 K, 101 kPa, x2 = 0.4029	0.827 ± 0.016
308.15 K, 101 kPa, x2 = 0.5036	0.716 ± 0.014
308.15 K, 101 kPa, x2 = 0.6012	0.621 ± 0.013
308.15 K, 101 kPa, x2 = 0.702	0.52 ± 0.013
308.15 K, 101 kPa, x2 = 0.8008	0.452 ± 0.012
308.15 K, 101 kPa, x2 = 0.8993	0.378 ± 0.011
313.15 K, 101 kPa, x2 = 0.1054	1.201 ± 0.021
313.15 K, 101 kPa, x2 = 0.1934	1.055 ± 0.019
313.15 K, 101 kPa, x2 = 0.3007	0.902 ± 0.017
313.15 K, 101 kPa, x2 = 0.4029	0.781 ± 0.015
313.15 K, 101 kPa, x2 = 0.5036	0.68 ± 0.014
313.15 K, 101 kPa, x2 = 0.6012	0.591 ± 0.013
313.15 K, 101 kPa, x2 = 0.702	0.496 ± 0.012
313.15 K, 101 kPa, x2 = 0.8008	0.431 ± 0.012
313.15 K, 101 kPa, x2 = 0.8993	0.363 ± 0.011
318.15 K, 101 kPa, x2 = 0.1054	1.125 ± 0.02
318.15 K, 101 kPa, x2 = 0.1934	0.991 ± 0.018
318.15 K, 101 kPa, x2 = 0.3007	0.85 ± 0.016
318.15 K, 101 kPa, x2 = 0.4029	0.74 ± 0.015
318.15 K, 101 kPa, x2 = 0.5036	0.647 ± 0.014
318.15 K, 101 kPa, x2 = 0.6012	0.563 ± 0.013
318.15 K, 101 kPa, x2 = 0.702	0.473 ± 0.012
318.15 K, 101 kPa, x2 = 0.8008	0.413 ± 0.012
318.15 K, 101 kPa, x2 = 0.8993	0.344 ± 0.011
323.15 K, 101 kPa, x2 = 0.1054	1.058 ± 0.019
323.15 K, 101 kPa, x2 = 0.1934	0.934 ± 0.017
323.15 K, 101 kPa, x2 = 0.3007	0.803 ± 0.016
323.15 K, 101 kPa, x2 = 0.4029	0.702 ± 0.014
323.15 K, 101 kPa, x2 = 0.5036	0.617 ± 0.013
323.15 K, 101 kPa, x2 = 0.6012	0.538 ± 0.013
323.15 K, 101 kPa, x2 = 0.702	0.452 ± 0.012
323.15 K, 101 kPa, x2 = 0.8008	0.396 ± 0.012
323.15 K, 101 kPa, x2 = 0.8993	0.33 ± 0.011

C[N+](C)(C)CC(=O)[O-] + CC(=O)CCC(=O)O
viscosity [mPa·s]
Conditions	298.15 K	303.15 K	308.15 K	313.15 K	318.15 K	323.15 K
100 kPa, x2 = 0.667	1342 ± 190	857.3 ± 110	572.3 ± 72	393.6 ± 47	268.9 ± 30	194.2 ± 21
101 kPa, x2 = 0.7	–	838 ± 33	–	–	–	221 ± 11
101 kPa, x2 = 0.9	117.7 ± 4.3	–	–	–	–	–

N#C[S-].[NH4+] + CC(=O)[O-].CC[n+]1ccn(C)c1
viscosity [mPa·s], 101 kPa
Conditions	x1 = 0.02	x1 = 0.1002	x1 = 0.1998	x1 = 0.2514	x1 = 0.3001	x1 = 0.3199	x1 = 0.3413
298.15 K	136.6 ± 4.4	160.2 ± 5.3	190.7 ± 6.5	198.6 ± 6.8	194.6 ± 6.6	195.4 ± 6.6	196.4 ± 6.6
303.15 K	100.9 ± 3	117.6 ± 3.6	139.3 ± 4.4	144.4 ± 4.5	141.9 ± 4.4	142.8 ± 4.4	143.6 ± 4.4
308.15 K	76.44 ± 2.1	88.53 ± 2.5	104 ± 2.9	107.4 ± 3	105.9 ± 2.9	106.6 ± 2.9	107.3 ± 2.9
313.15 K	59.28 ± 1.6	68.07 ± 1.8	79.27 ± 2.1	81.46 ± 2.1	80.5 ± 2	81.14 ± 2	81.73 ± 2
318.15 K	46.92 ± 1.2	53.32 ± 1.4	61.47 ± 1.5	62.88 ± 1.5	62.26 ± 1.5	62.81 ± 1.5	63.32 ± 1.5
323.15 K	37.79 ± 1	42.45 ± 1.1	48.4 ± 1.2	49.28 ± 1.2	48.89 ± 1.2	49.35 ± 1.2	49.79 ± 1.1

CCCC#N + CC(C)(C)O
viscosity [mPa·s]
Conditions	298.15 K	303.15 K	308.15 K	313.15 K	318.15 K
101 kPa, x2 = 0.0941	0.5487 ± 0.0056	0.5396 ± 0.0055	0.519 ± 0.0053	–	–
101 kPa, x2 = 0.1845	0.5808 ± 0.0058	0.5686 ± 0.0057	0.5478 ± 0.0055	–	–
101 kPa, x2 = 0.2837	0.6365 ± 0.0063	0.6123 ± 0.0061	0.5852 ± 0.0059	–	–
101 kPa, x2 = 0.3758	0.7071 ± 0.0069	0.6764 ± 0.0066	0.6373 ± 0.0063	–	–
101 kPa, x2 = 0.4766	0.8042 ± 0.0078	0.7523 ± 0.0073	0.6952 ± 0.0068	–	–
101 kPa, x2 = 0.5782	0.9457 ± 0.009	0.8545 ± 0.0082	0.7793 ± 0.0075	–	–
101 kPa, x2 = 0.6804	1.211 ± 0.011	1.071 ± 0.01	0.9743 ± 0.0092	–	–
101 kPa, x2 = 0.7836	1.61 ± 0.015	1.417 ± 0.013	1.268 ± 0.012	–	–
101 kPa, x2 = 0.8906	2.345 ± 0.021	2.01 ± 0.018	1.734 ± 0.016	–	–
101.33 kPa, x2 = 0.0953	0.575 ± 0.004	0.54 ± 0.004	0.51 ± 0.004	0.481 ± 0.004	0.456 ± 0.004
101.33 kPa, x2 = 0.1938	0.613 ± 0.004	0.573 ± 0.004	0.537 ± 0.004	0.505 ± 0.004	0.476 ± 0.004
101.33 kPa, x2 = 0.2941	0.669 ± 0.005	0.622 ± 0.004	0.579 ± 0.004	0.54 ± 0.004	0.506 ± 0.004
101.33 kPa, x2 = 0.3922	0.749 ± 0.006	0.689 ± 0.005	0.636 ± 0.004	0.589 ± 0.004	0.546 ± 0.004
101.33 kPa, x2 = 0.4949	0.867 ± 0.007	0.788 ± 0.007	0.719 ± 0.005	0.66 ± 0.005	0.607 ± 0.004
101.33 kPa, x2 = 0.591	1.03 ± 0.008	0.923 ± 0.008	0.834 ± 0.007	0.753 ± 0.006	0.685 ± 0.005
101.33 kPa, x2 = 0.695	1.297 ± 0.01	1.138 ± 0.009	1.006 ± 0.008	0.895 ± 0.007	0.802 ± 0.007
101.33 kPa, x2 = 0.7957	1.727 ± 0.013	1.476 ± 0.012	1.272 ± 0.01	1.107 ± 0.009	0.974 ± 0.008
101.33 kPa, x2 = 0.9002	2.573 ± 0.019	2.103 ± 0.016	1.746 ± 0.013	1.464 ± 0.011	1.245 ± 0.01

COC(=O)CC(=O)OC + CC(C)=O
303.15 K, 101 kPa
Conditions	viscosity [mPa·s]
x1 = 0.0666	0.4127 ± 0.0045
x1 = 0.139	0.5371 ± 0.0056
x1 = 0.2164	0.6676 ± 0.0068
x1 = 0.3009	0.8036 ± 0.008
x1 = 0.392	0.9488 ± 0.0094
x1 = 0.4919	1.094 ± 0.011
x1 = 0.6008	1.258 ± 0.012
x1 = 0.7208	1.429 ± 0.014
x1 = 0.8531	1.614 ± 0.016

COc1ccccc1O + CC(C)=O
303.15 K, 101 kPa
Conditions	viscosity [mPa·s]
x2 = 0.1	3.67 ± 0.1
x2 = 0.2	2.95 ± 0.08
x2 = 0.3	2.35 ± 0.06
x2 = 0.4	1.82 ± 0.05
x2 = 0.5	1.26 ± 0.03
x2 = 0.6	1.03 ± 0.03
x2 = 0.7	0.755 ± 0.02
x2 = 0.8	0.573 ± 0.015
x2 = 0.9	0.44 ± 0.012

Brc1ccccc1 + CC(C)CO
viscosity [mPa·s], 101.33 kPa
Conditions	x1 = 0.1065	x1 = 0.1936	x1 = 0.2949	x1 = 0.4015	x1 = 0.5016	x1 = 0.6014	x1 = 0.7006	x1 = 0.7967	x1 = 0.8995
298.15 K	2.649 ± 0.02	2.205 ± 0.017	1.831 ± 0.015	1.532 ± 0.012	1.36 ± 0.011	1.231 ± 0.01	1.144 ± 0.0095	1.088 ± 0.009	1.055 ± 0.0088
313.15 K	1.727 ± 0.014	1.483 ± 0.012	1.28 ± 0.01	1.116 ± 0.0093	1.022 ± 0.0086	0.9534 ± 0.0081	0.9062 ± 0.0077	0.8769 ± 0.0075	0.8637 ± 0.0074
